The values below come from article PMC8092876, “A Leucyl-tRNA Synthetase Inhibitor with Broad-Spectrum Antimycobacterial Activity” (Antimicrobial Agents and Chemotherapy, 2021).

Series [1] deals with M. abscessus Bamboo RM1 (LeuS A428P). The series is described as follows: microbe, parasite or virus in culture. It is filed as cell-based. As to conditions: Mycobacteroides abscessus.
Series [2] deals with M. abscessus subsp. bolletii CCUG 50184T. Briefly: MIC assay in 96-well plate format. As to conditions: Mycobacteroides abscessus, culture collection reference strain. It is filed as cell-based.
The subject of series [3] is M. abscessus Bamboo RM2 (LeuS K502E). The series is described as follows: microbe, parasite or virus in culture. The settings on record: Mycobacteroides abscessus. It is filed as cell-based.
Series [4] relates to M. abscessus subsp. abscessus ATCC 19977. Briefly: MIC assay in 96-well plate format. As to conditions: Mycobacteroides abscessus, ATCC19977; M. abscessus subsp. abscessus ATCC 19977, culture collection reference strain. The series is classed as cell-based.
The test system of another series is M. avium 11. Briefly: MIC assay in 96-well plate format. The series is classed as cell-based, M. avium subsp. hominissuis. The settings on record: Mycobacterium avium, 96 h; M. avium 11, 7H9, 4 days; read-out: MIC.
The test system of series [5] is M. abscessus subsp. abscessus M9. Briefly: MIC assay in 96-well plate format. As to conditions: Mycobacteroides abscessus; M. abscessus subsp. abscessus M9, clinical isolate. It is filed as cell-based.
For series [6], the system named is M. abscessus Bamboo biofilms. The series is described as follows: Biofilm growth inhibition assay (biofilm MIC and MBC). It is filed as cell-based, M. abscessus subsp. abscessus. The settings on record: Mycobacteroides abscessus. As for the experimental part: The biofilm growth inhibition assay was performed as previously described ([40]). Innovotech MBEC 96-well biofilm assay plates (Innovotech 19111, Edmonton, AB, Canada) were used, and the supplier’s manual was followed with minor modifications. Mid-log-phase M. abscessus Bamboo precultures (OD600 = 0.4 to 0.6) were spun down at 3200 × g for 10 min at 25°C and washed with 7H9 medium without Tween 80 (7H9nt). Bacteria were resuspended into 25 ml 7H9nt to an OD600 of 0.0125 (1.0 × 10^6 CFU/ml). […] The lids with the pegs were transferred to a new MBEC multititer plate containing 150 μl of fresh 7H9nt medium per well without bacteria (0 h time point). After that, the pegs with growing biofilm were transferred once a day to a new multititer plate containing fresh 7H9nt medium. To measure growth of the biofilm formed on the peg, the pegs were washed in 200 μl of 7H9nt medium before they were aseptically removed and placed in 1.7 ml microcentrifuge tubes (VWR 87003-294, Rador, PA, United States) containing 500 μl PBS/Tween 80. The microcentrifuge tubes were vigorously vortexed at 2,000 rpm for 90 s at 25°C to detach the bacteria from the pegs before samples were serially diluted and plated for the determination of CFU/peg. […] The average drug-free biofilm growth was calculated by subtracting the average 24 h CFU/peg value from the average 72 h CFU/peg value for the untreated control pegs. The biofilm MIC was defined as the lowest drug concentration that reduced the CFU/peg by 90% relative to that of the average drug-free biofilm growth.

For series [7], the system named is M. abscessus Bamboo RM3 (LeuS V417M). Briefly: microbe, parasite or virus in culture. As to conditions: RM3, batch 1, LeuS V417M. The series is classed as cell-based.
Series [8] has as its system M. abscessus subsp. bolletii M506. Briefly: MIC assay in 96-well plate format. It is filed as cell-based. The settings on record: Mycobacteroides abscessus; M. abscessus subsp. bolletii M506, clinical isolate.
The next series relates to M. chimaera CCUG 50989T. The series is described as follows: MIC assay in 96-well plate format. The series is classed as cell-based. The settings on record: CCUG50989T, culture collection reference strain.
In series [9] the test system is M. abscessus subsp. abscessus M422. Briefly: MIC assay in 96-well plate format. As to conditions: Mycobacteroides abscessus; M. abscessus subsp. abscessus M422, clinical isolate. The series is classed as cell-based.
The conditions of series [10]: TB efficacy studies; stated as known, no reference given; cited from earlier work.
The nature of the next series: Stability in microsomes. It is filed as in vitro ADME. The method, then:
Intrinsic clearance (CLi) values were determined in mouse and human liver microsomes. Test compounds (final concentration 0.5 μM) were incubated at 37°C for 30 min in 50 mM potassium phosphate buffer (pH 7.4) containing 0.5 mg microsomal protein/ml. The reaction was started by addition of cofactor NADPH. At 0, 5, and 20 min, an aliquot (90 μl) was taken, quenched with acetonitrile-methanol containing an appropriate internal standard, centrifuged, and analyzed by liquid chromatography-tandem mass spectrometry (LC-MS/MS). The intrinsic clearance (CLi) was determined using the following equation: CLi = k(ml of incubation/mg microsomal protein) × (mg microsomal protein/g liver)where k is the turnover rate constant of the ln(% remaining compound) versus time regression and mg microsomal protein/g liver is 52.5 for both mouse and human.

Another series deals with M. abscessus Bamboo. Briefly: MIC assay in 96-well plate format. It is filed as cell-based, M. abscessus subsp. abscessus. As to conditions: Mycobacteroides abscessus.
Series [11] can be described thus: AMP (artificial membrane permeability) assay. It is filed as in vitro ADME. The settings on record: PAMPA, pH 7.4. As for the experimental part:
An 8% L-α-phosphatidylcholine (EPC) in 1% cholesterol decane solution and a 1.8% EPC in cholesterol decane solution were prepared. The lipid solution was then aliquoted into 4 ml capped vials, sealed with parafilm, and stored in a −20°C freezer. The lipid solution was then transferred from 4 ml vial into a 96-well half area plate (130 μl/well) for daily assay usage. An additional 50 mM phosphate buffer with 0.5% encapsin (pH 7.4) was prepared. The assay was run by the Biomek FX and Biomek software. The assay procedure is written under the Biomek software. For one batch assay, it can test two 96-well sample plates with at least one standard on each sample plate. The total assay time was about 4 h. A total of 3.5 μl of lipid solution was added to the filler plate and shaken for 12 s, 250 μl of buffer was added to the donor side, and 100 μl of buffer was added to the receiver side. The assay plate was shaken for 45 min before adding the compounds. The test compounds (2.5 μl) were added to the donor side. The assay was run as replicates: assay plates 1 and 2 tested sample plate 1, and assay plates 3 and 4 tested sample plate 2. The assay plates were then incubated and shaken for 3 h at room temperature. […] Compound concentration was measured by HPLC at different time points.

In series [12] the test system is M. tuberculosis H37Rv ATCC 27294. The series is described as follows: MIC assay in 96-well plate format. As to conditions: Mycobacterium tuberculosis, 168 h. The series is classed as cell-based.
The subject of series [13] is M. abscessus subsp. abscessus M199. The series is described as follows: MIC assay in 96-well plate format. The series is classed as cell-based. The settings on record: Mycobacteroides abscessus; M. abscessus subsp. abscessus M199, clinical isolate.
Series [14] concerns M. abscessus Bamboo RM5 (LeuS V417M). The series is described as follows: microbe, parasite or virus in culture. The series is classed as cell-based. The settings on record: RM5, batch 2, LeuS V417M.

For orientation: Papp means a coefficient for how fast a substance crosses the barrier. A higher Papp goes with ready permeation.

Structures are written as SMILES. In brackets after ≈: the same amount, converted by molar mass. Read-outs that look alike come from different tables or passages of the source.

As for `CC(C)(O)COc1ccc(Br)c2c1B(O)O[C@@H]2CN` [EC/11770], the MIC in series [1] was greater than 100 µM; in [2] it was 1.3 µM (≈ 0.429 µg/mL); in [3] it was greater than 100 µM; in [4], 0.7 µM (≈ 0.231 µg/mL); in the series with M. avium 11, 4 µM (≈ 1.32 µg/mL); in [5] it was 0.49 µM (≈ 0.162 µg/mL). The MIC was 3.1 µM (≈ 1.02 µg/mL) in series [6] (48 h with drug, 90% reduction of CFU/peg growth); 60 to 75 µM (≈ 19.8 to 24.7 µg/mL) in series [7] (Mycobacteroides abscessus); 62 µM (≈ 20.5 µg/mL) in series [7]; 0.48 µM (≈ 0.158 µg/mL) in series [8]; 1.7 µM (≈ 0.561 µg/mL) with M. chimaera CCUG 50989T; 0.33 µM (≈ 0.109 µg/mL) in series [9]. In addition, the MIC with M. abscessus Bamboo is 0.9 µM (≈ 0.297 µg/mL); with M. abscessus Bamboo (72 h, M. abscessus Bamboo, 7H9, 3 days, read-out: MIC), 1.2 µM (≈ 0.396 µg/mL); in the series with M. abscessus Bamboo (72 h, M. abscessus Bamboo, CAMH broth, 3 days, read-out: MIC), 0.7 µM (≈ 0.231 µg/mL); in series [12] it was 0.56 µM (≈ 0.185 µg/mL); in [13] it was 0.93 µM (≈ 0.307 µg/mL); in series [14] (Mycobacteroides abscessus), 60 to 75 µM (≈ 19.8 to 24.7 µg/mL). In series [14], this compound returned an MIC of 75 µM (≈ 24.7 µg/mL). The same compound registered an MBC in series [6] (10-fold CFU/peg reduction vs 24 h) of 50 µM (≈ 16.5 µg/mL). Further, the tolerated dose entry in series [10] was “up to 100 mg/kg”. Besides, in the series “Stability in microsomes” (human hepatic microsomes), the “Human in vitro CLint” value was <0.5 <0.5 ml/min/g tissue. In addition, the “Mouse in vitro CLint” value in the series “Stability in microsomes” (mouse hepatic microsomes) is recorded as <0.5 <0.5 ml/min/g tissue. This compound gave a Papp at 3 h in series [11] of 27.5 ×10⁻⁶ cm/s.
